Our source for the melting point values is patent US6949536B2, “Sulfonylbenzene compounds as anti-inflammatory/analgesic agents” (Pfizer, Inc., priority 1998, dated 2005).

Where a name gives a salt, the structure may show the parent alone.

A word on the melting point: it is the temperature, or range, at which the solid turns liquid. In turn, `NS(=O)(=O)c1ccc(-n2nc(C(F)(F)F)cc2-c2ccc(-c3cscn3)cc2)cc1` (as salt: hydrochloride) [Example 100, 4-[5-[4-(1,3-Thiazol-4-yl)phenyl]-3-(trifluoromethyl)-1H-pyrazol-1-yl]benzenesulfonamide] displayed a melting point of 188 to 190 °C.

Compound `Cc1noc(-c2ccc(-c3cscn3)cc2)c1-c1ccc(S(N)(=O)=O)cc1` [Example 190, 4-[3-Methyl-5-[4-(1,3-thiazol-4-yl)phenyl]-4-isoxazolyl]benzenesulfonamide] returned a melting point of 236 °C.

`CS(=O)(=O)c1ccc(-n2nc(C(=O)O)cc2-c2ccc(-c3ccco3)cc2)cc1F` [Example 128, 1-[3-Fluoro-4-(methylsulfonyl)phenyl]-5-[4-(2-furyl)phenyl]-1H-pyrazole-3-carboxylic Acid] returned a melting point of 171.5 to 173 °C.

On to `Cc1ccc(-c2ccc(S(C)(=O)=O)cc2)n1-c1ccc(-c2ccc[nH]2)cc1` [Example 47, 2-Methyl-5-[4-(methylsulfonyl)phenyl]-1-[4-(2-pyrrolyl)phenyl]-1H-pyrrole], for which the melting point was in the range of 225 to 227 °C.

`NS(=O)(=O)c1ccc(-n2nc(C(F)(F)F)cc2-c2ccc(-c3ccco3)cc2)cc1Cl` (as salt: hydrochloride) [Example 144, 2-Chloro-4-[5-[4-(2-furyl)phenyl]-3-(trifluoromethyl)-1H-pyrazol-1-yl]benzenesulfonamide]: the melting point was 192.6 °C.

Compound `Cc1cc(-c2noc(C)c2-c2ccc(S(C)(=O)=O)c(F)c2)ccc1-c1cscn1` [Example 170, 4-[3-Fluoro-4-(methylsulfonyl)phenyl]-5-methyl-3-[3-methyl-4-(1,3-thiazol-4-yl)phenyl]isoxazole] registered a melting point of 99.5 °C.

On to `NS(=O)(=O)c1ccc(-n2nc(C(F)(F)F)cc2-c2ccc(-c3ccco3)cc2)c(Cl)c1` (as salt: hydrochloride) [Example 140, 3-Chloro-4-[5-[4-(2-furyl)phenyl]-3-(trifluoromethyl)-1H-pyrazol-1-yl]benzenesulfonamide], for which the melting point was 190.3 °C.

For `COc1cc(-c2cc(C(F)(F)F)nn2-c2ccc(S(N)(=O)=O)c(F)c2)ccc1-c1cscn1` (as salt: hydrochloride) [Example 175, 2-Fluoro-4-[5-[3-methoxy-4-(1,3-thiazol-4-yl)phenyl]-3-(trifluoromethyl)-1H-pyrazol-1-yl]benzenesulfonamide], the melting point is 97 to 99 °C.

Compound `CS(=O)(=O)c1ccc(-n2ncc(C#N)c2-c2ccc(-c3ccco3)cc2)cc1F` [Example 163, 4-Cyano-1-[3-fluoro-4-(methylsulfonyl)phenyl]-5-[4-(2-furyl)phenyl]-1H-pyrazole] yielded a melting point of 153 to 157 °C.

Regarding `Cc1ccc(-c2ccc(S(C)(=O)=O)cc2)n1-c1ccc(-c2ccco2)cc1` [Example 44, 1-[4-(2-Furyl)phenyl]-2-methyl-5-[4-(methylsulfonyl)phenyl]-1H-pyrrole], the melting point is 145 to 147 °C.

`Cc1cc(-c2cscn2)ccc1-c1cc(C(F)(F)F)nn1-c1ccc(S(C)(=O)=O)c(F)c1` (as salt: methanesulfonate) [Example 187, 1-[3-Fluoro4-(methylsulfonyl)phenyl]-5-[2-methyl-4-(4-thiazolyl)phenyl]-3-trifluoromethyl-1H-pyrazole] registered a melting point of 131.9 °C.

Compound `Cc1nc(-c2ccc(-c3cccs3)cc2)c(-c2ccc(S(C)(=O)=O)cc2)o1` [Example 50, 2-Methyl-5-[4-(methylsulfonyl)phenyl]-4-[4-(2-thienyl)phenyl]oxazole] came in with a melting point of 183 to 185 °C.

Regarding `Cc1cc(-c2nc(C(F)(F)F)cn2-c2ccc(S(C)(=O)=O)c(F)c2)ccc1-c1cscn1` [Example 178, 1-[3-Fluoro-4-(methylsulfonyl)phenyl]-2-[3-methyl-4-(4-thiazolyl)phenyl]-4-trifluoromethyl-1H-imidazole], the melting point lay within 197 to 198 °C.
